Results reported in publication PMC11125357, “Assessment of Anticancer Properties of Argemone mexicana L. and Berberine: A Comparative Study” (Plants, 2024).
“And” between values parts separate entries of the source, which are not always exact repeats. Equal values may be shown once. “Also recorded” adds a separate entry of the source. Marks after values point to notes of the source that are not given here.

What was measured:
DPPH scavenging test = settings: 50% decrease of DPPH, 517 nm, mean ± SD
Experimental: (§1) The antioxidant activity was determined by the DPPH, ABTS radical scavenging, and FRAP (Ferric Reducing Antioxidant Power) methods. In the DPPH and ABTS assays, Vitamin C served as the positive control. In all treatment evaluations, the concentrations ranged from 15.63, 31.25, 62.50, […], 250, 500, and 1000 µg/mL.
The antioxidant activity was assessed using the DPPH radical assay, where the antioxidant activity (free radical scavenging capacity) was quantified as IC50 in µg/mL. […] The DPPH radical scavenging assay was conducted in a 96-well flat-bottom plastic microplate (Corning®). The percentage inhibition of DPPH at 517 nm was determined using a UV/VIS spectrophotometer and calculated using Formula (7) as follows:(7) DPPH scavenging %=Abs517 Control−Abs517 Sample/Abs517 Control×100

[1] = tested on: murine macrophages (J774A.1 cell line); experiment: Nitric oxide production (Griess reagent); format: cell-based
Experimental: The macrophage cultures were incubated in triplicate in 25 cm^2 tissue culture flasks (Corning Glass Works, Corning®, Oneonta, NY, USA) in a total volume of 7 mL of RPMI-1640 culture medium supplemented with 10% FBS and 1% antibiotic/antimycotic solution and maintained at 37 °C in 5% CO2. A concentration of 200 ng/mL of E. coli O26:B6 LPS served as an inflammatory-inducing agent to stimulate NO production. NO production was assessed by measuring nitrite accumulation in the supernatant using Griess reagent. A standard curve was generated using NaNO2 (1 M) to interpret the test results.

[2] = tested on: HEP-G2 (human hepatocellular carcinoma) cells; experiment: MTT cell viability assay in HEP-G2 cells; format: cell-based; settings: HepG2, 72 h of incubation, mean ± SD
Experimental: (§2) The HEP-G2 cancer cell line and the normal VERO cell line were cultured in DMEM supplemented with 10% FBS, 2% NaHCO3, and HEPES. All tests performed with these cells were carried out in 96-well flat-bottom plastic microplates (Corning® Labware and Equipment, Oneonta, NY, USA) due to the adherent nature of these cells. L5178Y-R cells and PBMC were maintained in RPMI-1640 culture medium supplemented with 10% FBS and 1% antibiotic/antimycotic solution. All the tests performed with these cells were carried out in 96-well curved-bottom plastic microplates (Corning®) because these cells are non-adherent.
(§3) Prior to the application of the treatments, the cells were incubated at 37 °C in a humidified incubator (Sanyo MCO-19AIC CO2 Incubator, Sanyo Electric Co., Ltd., Gunma-ken, Japan) with 5% CO2 for 24 h for adaptation. The cell viability was determined by MTT assay; MTT color intensity was directly associated with the number of living cells after 72 h of incubation. Mitochondrial enzymes, specifically succinate dehydrogenase, reduce MTT tetrazolium salt to form formazan; this reaction produces a purple–blue product that can be measured using spectrophotometry since the in vitro cell viability can be tested using the MTT colorimetric assay.

[3] = tested on: PBMC (human peripheral blood mononuclear) cells; experiment: MTT cell viability assay in PBMC; format: cell-based; settings: 72 h of incubation, mean ± SD
Experimental: as §2
as §3, with “assay. Therefore, we decided to perform an MTT assay to correlate mitochondrial activity with viability. […]” for “assay.”

[4] = tested on: murine lymphoma (L5178Y-R) cells; experiment: MTT cell viability assay in L5178Y-R cells; format: cell-based; settings: Mus musculus, L5178, 72 h of incubation, mean ± SD, read-out: IC50 (µg/mL) in Cells, L5178 Y-R
Experimental: as §2, §3

[5] = tested on: VERO (monkey kidney epithelial) non-tumoral cells; experiment: MTT cell viability assay in VERO cells; format: cell-based, African green monkey; settings: Primates, 72 h of incubation, mean ± SD
Experimental: as §2
as §3, with “assay. Therefore, we decided to perform an MTT assay to correlate mitochondrial activity with viability. […]” for “assay.”

Artemia salina nauplii = experiment: Lethality in Artemia salina; format: in vivo; settings: 24 h of exposure, mean ± SD
Experimental: Artificial seawater was prepared using 20 g of sea salt and 6 mg of brewer’s yeast dissolved in 500 mL of distilled H2O (pH 7.8). Prior to the assay, the artificial seawater was conditioned by supplying air with an aquarium pump for 24 h. For the hatching of A. salina nauplii, a rectangular glass container (17 × 14 × 7 cm) was adapted, with a dark section where the cysts were incubated and an illuminated area that allows only hatched nauplii to be obtained by means of phototropism. After an incubation period of 48 h under room temperature conditions of 25 ± 2.0 °C (aeration and constant light), the test was carried out using 96-well transparent plastic microplates with a concave bottom (Corning®), in which 20 nauplii and different concentrations of the treatments (10, 100, 200, 400, 600, 800, 1000, and 2000 µg/mL) were deposited in a final volume of 200 µL per well [46]. […] Counting of live and dead larvae in each well of the microplate was performed with the use of a stereoscope microscope. […] A. salina nauplii viability was determined by Formula (6) as follows:(6) A. salina Viability %= Survival Treatment Count/ Survival Control Count×100

ABTS scavenging test = settings: 50% decrease of ABTS radical, 734 nm, mean ± SD
Experimental: as §1
The antioxidant activity was determined using the ABTS radical scavenging method, where the antioxidant activity (free radical scavenging capacity) was quantified as IC50 in µg/mL. […] The ABTS radical scavenging assay was conducted in 96-well plastic microplates (Corning®), and the percentage inhibition of ABTS at 734 nm was calculated using Formula (8) as follows:(8) ABTS scavenging %=Abs734nm Control−Abs734 Sample/Abs734nm Control×100

Hemolytic test = format: cell-based; settings: human red blood cells (erythrocytes), pH 7.2; concentration causing 50% hemolysis of human red blood cells, mean ± SD
Experimental: The hemolytic activity was assessed using the hemolysis test. Treatments evaluated were prepared in PBS (pH 7.2 ± 0.2) in concentrations ranging from 10, 100, 200, 400, 600, 800, 1000, and 2000 µg/mL; the percent (%) of hemolysis was determined by measuring the Abs at 540 nm for each treatment.

[6] = tested on: human erythrocytes, AAPH-induced hemolysis; experiment: Anti-hemolytic test by the AAPH assay; format: cell-based; settings: Erythrocyte; protection against AAPH radical (150 mM) in human erythrocytes, mean ± SD
Experimental: The AAPH inhibition test, as previously reported, was used to determine the anti-hemolytic activity. Hemolysis was induced by the AAPH radical (150 mM, prepared in PBS) as a positive control. The concentrations of the treatments were the same as in the hemolysis assay plus the AAPH.

Row | SMILES | DPPH IC50 (DPPH scavenging test) | activity in response to NO production ([1]; 0.98 to 500 µg/mL) | NO production in macrophages compared to LPS ([1]; 0.5 h, 0.00–500 µg/mL) | NO production in macrophages compared to LPS ([1]; 4 h, 0.00–31.25 µg/mL) | NO production in macrophages compared to LPS ([1]; 4 h, 62.50–250 µg/mL) | NO production in macrophages compared to LPS ([1]; 4 h, 500–1000 µg/mL) | NO production in macrophages compared to LPS ([1]; 24 h, 0.00–500 µg/mL) | NO production in macrophages compared to LPS ([1]; BER at 1000 µg/mL, 0.5, 4 and 24 h) | IC50 [2] | IC50 [3] | IC50 [4] | IC50 [5] | A. salina LD50 (Artemia salina nauplii) | ABTS IC50 (ABTS scavenging test) | IC50 (Hemolytic test) | IC50 [6]
1 | COc1ccc2cc3[n+](cc2c1OC)CCc1cc2c(cc1-3)OCO2 [BER, 16,17-dimethoxy-5,7-dioxa-13-azoniapentacyclo [11.8.0.0^2,10.0^4,8.0^15,20]henicosa-1(13),2,4(8),9,14,16,18,20-octaene] | 44.80 ± 1.22 ^a,* µg/mL | immunomodulatory activity | no significant increase in NO production | no increase in NO production | behaved in the same way as LPS | increase in NO production greater than that of LPS | no increase in ON production | increased NO production; also recorded: significantly greater effect on NO production compared to LPS | 56.9 ± 9.45 µg/mL | 27.1 ± 7.16 µg/mL | < 5 µg/mL | 908 ± 31.9 µg/mL | 178.00 µg/mL and 178.00 ± 29.70 ^b,** µg/mL | 40.29 ± 9.02 ^a,* µg/mL | 713 ± 38 µg/mL | 36.9 ± 5.49 µg/mL
2 | O=C1O[C@H]([C@@H](O)CO)C(O)=C1O [Vitamin C, ascorbic acid] | 68.90 ± 3.11 ^b µg/mL | – | – | – | – | – | – | – | – | – | – | – | – | 81.76 ± 6.30 ^b µg/mL | – | –
